Measurements published in the METLIN SMRT retention time set (Domingo-Almenara et al. 2019).

Test: gradient 5% acetonitrile 3 min, to 50% in 2 min, to 85% in 15 min, held 3 min, 100 µL/min
Settings: column: Zorbax Extend-C18 2.1 x 50 mm; eluents: water / acetonitrile, 0.1% formic acid
Outline: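 Pure standards were analyzed in mixtures of ~100 molecules using HPLC coupled to a quadrupole time-of-flight mass spectrometer, in both positive and negative ionization mode. Separation used a Zorbax Extend-C18 column (2.1 × 50 mm, 1.8 μm) at 100 μL/min, with water and acetonitrile each containing 0.1% formic acid. Dead and dwell volumes were 40 μL and 900 μL, and data were collected over 3 months. Retention time was read from computationally picked adduct peaks, each inspected manually.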

| RP-LC retention time [s] | Structure (SMILES) |
| --- | --- |
| 788 | COc1ccc(CN2CC(=O)N(c3cccc(C)c3)[C@@H]3CS(=O)(=O)C[C@@H]32)cc1 |
| 831 | COc1ccc(-c2nc3cnccn3c2Nc2cc(OC)ccc2OC)cc1 |
| 841 | CN(Cc1ccccc1)C(=O)c1ccc2c(c1)CCCN2S(C)(=O)=O |
| 982 | COc1ccc(NC(=O)N2CCCC2c2nc(-c3ccc(F)cc3F)no2)cc1Cl (configuration not stated) |
| 870 | Cc1cc(C(=O)Nc2nc3c(s2)CN(C(=O)c2nc4ccccc4s2)CC3)no1 |
| 789 | COc1cccc(NC(=O)Cn2c(=O)n(-c3ccccc3)c(=O)c3c2cc(C)n3C)c1 |
| 729 | COc1ccc(C(=O)NC2CCN(C(=O)c3cc(-c4ccc(OC)cc4)n[nH]3)CC2)cc1 |
| 699 | O=C(NCCc1csc(C2CCN(C(=O)c3cc(F)ccc3F)CC2)n1)C1CC1 |
| 761 | O=C1CCCc2cc(S(=O)(=O)N3CCC(C(=O)NC4CCCC4)CC3)ccc2N1 |
| 666 | CCc1nc(N)n(CC(=O)Nc2ccc(Br)cc2)c(=O)c1C |
| 910 | Cc1ccc(C)c(-n2ccn(Cc3nc(-c4ccc(F)cc4)no3)c(=O)c2=O)c1 |
| 825 | CCOc1ccc(N(C)C(=O)C2CCCN2S(=O)(=O)c2cc(C(=O)OC)n(C)c2)cc1 (configuration not stated) |
| 814 | CCOC(=O)c1cccc(NS(=O)(=O)c2cc(-c3c(CC)noc3NC(C)=O)ccc2OC)c1 |
| 755 | Cc1cc(C(=O)N2CCCCCC2c2nnc(C)o2)c(C)o1 (configuration not stated) |
| 853 | O=C(c1ccco1)N1CCCC1c1nc(-c2ccccc2)no1 (configuration not stated) |
| 783 | Cc1ccc(N(CN2CCCC2=O)C(=O)c2ccc(C)c(C)c2)cc1 |
| 803 | CCn1cnc(S(=O)(=O)N2CCCC(C(=O)Nc3cc(C)cc(C)c3)C2)c1 (configuration not stated) |
| 683 | O=c1c2cc(-c3ccc(F)cc3)nn2ccn1Cc1noc(CN2CCCCCC2)n1 |
| 774 | Cn1c(=O)c(N2CCC(C(=O)NCc3ccco3)CC2)nc2ccccc21 |
| 658 | Cc1noc(C)c1S(=O)(=O)N1CCC(Cn2c(C)cnc2-c2ccccc2)C1 (configuration not stated) |
| 683 | Cc1cc2nc(NC3=NCN(CC4CCCO4)CN3)nc(C)c2cc1C (configuration not stated) |
| 876 | O=C(Nc1ccc(N2CCN(C3CCCC3)C2=O)nc1)c1ccc(Br)cc1 |
| 731 | CCOC(=O)N1CCC(NC(=O)Cn2ccc3ccccc32)CC1 |
| 1100 | COc1ccc(-c2noc(Cc3nnc(-c4cccc(Br)c4)o3)n2)cc1 |
| 990 | Cc1nn(-c2ccc(-c3ccccc3)nn2)c(C)c1S(=O)(=O)NCc1ccc(F)cc1F |

| RP-LC retention time [s] | Structure (SMILES) |
| --- | --- |
| 896 | Cc1noc(-c2ccc(-n3cnc(C(=O)NC4CCCCCC4)c3)nc2)n1 |
| 1420 | Cc1ccc(-c2nc(C3CCN(S(=O)(=O)c4c(C)cc(C)cc4C)CC3)no2)cc1 |
| 638 | Cn1c(=O)n(CCN2CCOCC2)c(=O)c2c1nc1n2CCCN1c1ccc(Br)cc1 |
| 712 | Cc1cc(C(=O)Nc2nc3c(s2)CN(C(=O)c2cnn(-c4ccccc4)c2C)CC3)no1 |
| 1080 | CC1CCN(S(=O)(=O)c2cc(-c3nnc(C4CCCC4)o3)co2)CC1 |
| 895 | CCOc1cccc(-c2noc(Cn3ccn(-c4ccc(Cl)cc4)c(=O)c3=O)n2)c1 |
| 939 | O=C(Nc1cccc(F)c1)C1CCN(S(=O)(=O)c2cc(C(=O)N3CCCCCC3)cs2)CC1 |
| 954 | Cc1cccc(NC(=O)c2cccn2Cc2noc(C3CC3)n2)c1C |
| 683 | COc1ccc(Br)cc1C1C(C(=O)N2CCOCC2)=C(C)NC2=C1C(=O)CC(C)(C)C2 (configuration not stated) |
| 994 | O=C(Cn1cccc1-c1nc(-c2ccc3c(c2)OCO3)no1)Nc1ccc(F)cc1 |
| 1330 | Cc1ccc(C)c(-c2csc(Nc3ccc(Br)cn3)n2)c1 |
| 730 | CCCNC(=O)C1CCN(c2ccc(SCC(=O)Nc3cc(Cl)ccc3OC)nn2)CC1 |
| 777 | COc1ccc(-c2nc(N3CCCCC3)c3ccccc3n2)cc1 |
| 1140 | CCOc1cccc(-c2noc(CN3C(=O)C(C)Oc4ccccc43)n2)c1 (configuration not stated) |
| 645 | O=C(Nc1ccc2c(c1)OCCO2)N1CCCC(Cn2c(C3CC3)nc3cccnc32)C1 (configuration not stated) |
| 1230 | Cc1ccc(Cl)cc1NS(=O)(=O)c1cc(-c2nc(C(C)C)cs2)cs1 |
| 1210 | CCCn1c(=O)c2c(C(=O)N3CCN(c4ccc(Cl)cc4)CC3)cc(=O)n(CCC)c2n(C)c1=O |
| 807 | CCc1noc(NC(C)=O)c1-c1ccc(C)c(S(=O)(=O)NCc2ccc(OC)cc2)c1 |
| 1080 | Cc1ccc(-c2noc(Cn3c(=O)n(-c4ccc(F)cc4)c(=O)c4sccc43)n2)cc1C |
| 936 | O=C(c1ccc(Cl)cc1)N1CCN(c2cc(-c3ccc(Cl)cc3)[nH]n2)CC1 |
| 1160 | CCc1nc2cc(-c3noc(-c4cncc(Br)c4)n3)ccc2o1 |
| 845 | CCCN1C(=O)CCc2cc(NS(=O)(=O)c3ccccc3C(=O)OC)ccc21 |
| 611 | CCCN(Cc1ccc(OC)c(OC)c1)Cc1cc(=O)n2cc(C)ccc2n1 |
| 630 | O=C(Cn1c(=O)oc2cc(Cl)ccc21)N1CCN(c2ccccn2)CC1 |
| 768 | CC(=O)N1CCc2cc(N3CC(C(=O)Nc4cc(Cl)ccc4F)CC3=O)ccc21 (configuration not stated) |

More lines, now with the values behind:

| Structure (SMILES) | RP-LC retention time [s] |
| --- | --- |
| CCC(=O)N1CCc2cc(N3CC(C(=O)Nc4ccc(C(C)=O)cc4)CC3=O)ccc21 (configuration not stated) | 717 |
| O=C(NCc1ccc(F)cc1)NC1CCN(C(=O)N2C[C@H]3C[C@H](C2)[C@H]2CCCC(=O)N2C3)CC1 | 658 |
| O=C1NC(=O)/C(=C/c2ccc(C(=O)Nc3ccc(C(=O)O)cc3)cc2)S1 | 648 |
| c1ccc(-c2nnc(-c3ccccc3OCc3cn4ccccc4n3)o2)cc1 | 702 |
| O=C1/C(=C/c2ccccc2)C[C@@]2(O)[C@H]3Cc4ccc(O)c5c4[C@@]2(CCN3CC2CC2)[C@H]1O5 | 724 |
| COc1ccc(OCC(=O)N2CCN(Cc3noc4ccccc34)CC2)cc1 | 711 |
| CSc1ccc(CNC(=O)COc2nc(C)nc3ccccc23)cc1 | 734 |
| CCN(C(=O)CCc1ccccc1)c1nc(-c2ccccc2)cs1 | 1320 |
| CCOC(=O)C1CCN(C(=O)c2cn3c(n2)CCCC3)CC1 | 586 |
| Cc1cc(=O)n(CC(=O)Nc2ccc(F)c(F)c2)c(N)n1 | 598 |
| COC(=O)c1ccccc1NC(=O)CCc1c(-c2ccc(Cl)cc2)nc2ccccn12 | 772 |
| O=c1c(NCCc2ccccn2)nc2ccncc2n1Cc1ccccc1 | 551 |
| COc1ccccc1N1CCN(CCCCNC(=O)c2ccc3ccccc3c2)CC1 | 666 |
| COc1cccc(-n2c(=O)c(C(=O)Nc3cc(F)ccc3F)c(O)c3cccnc32)c1 | 1270 |
| O=C(c1ccoc1)N1CCCCC1c1nncn1Cc1ccccc1 (configuration not stated) | 689 |
| CCOC(=O)c1c(C)[nH]c(CCC(=O)Nc2ccc(F)cc2F)c1C | 905 |
| CC(C)NC(=O)c1ccc(OCC2CCCN2C(=O)c2cccs2)cc1 (configuration not stated) | 818 |
| O=C(Nc1nsc(-c2ccccc2)n1)c1cccs1 | 743 |
| O=C(Cc1cccs1)Nc1cccc(OCc2nnc(-c3ccc(Cl)cc3)o2)c1 | 1010 |

| Structure (SMILES) | RP-LC retention time [s] |
| --- | --- |
| CCn1c(C(=O)N2CCCC(C(=O)NC(C)C34CC5CC(CC(C5)C3)C4)C2)cc2sccc21 (configuration not stated) | 1210 |
| Cc1nc(C)c(C(=O)Nc2ccccc2NC(=O)c2ccccn2)s1 | 691 |
| CCN1C=C(C(=O)OCc2cccc(F)c2)C(C)=NS1(=O)=O | 968 |
| COc1nn(C)cc1C(=O)NCC(=O)NC1CCSC1=O (configuration not stated) | 559 |
| COc1ccc2c(c1)C1(CCN(S(=O)(=O)c3ccc4c(c3)oc(=O)n4C)C1)C(=O)N2 (configuration not stated) | 746 |
| COCCc1noc(C2Cc3ccccc3N2C(=O)NCC(=O)OC)n1 (configuration not stated) | 720 |
| CCOC(=O)c1c(C)[nH]c(CCC(=O)Nc2ccc(C(C)=O)cc2)c1C | 800 |
| C#C[C@]1(O)CC[C@H]2[C@@H]3CCC4=CC(=O)CCC4=C3C=C[C@@]21CC | 1050 |
| CC(=O)N1CCc2cc(N3CC(C(=O)Nc4ccccc4)CC3=O)ccc21 (configuration not stated) | 677 |
| O=C1NCCOCCCN(C(=O)Nc2ccccc2)[C@H]2CCC[C@@H]12 | 741 |
| O=C(NCC1CN(CC2CC2)CC12CCCCC2)Nc1cccc(Cl)c1 (configuration not stated) | 741 |
| CCOc1ccc(CN2C(=O)C3(CCOCC3)CC2c2nnnn2C(C)(C)C)cc1 (configuration not stated) | 833 |
| CCCNC(=O)CCc1nc2ccccc2n(CC(=O)Nc2cc(Cl)c(OC)cc2OC)c1=O | 790 |
| CN(C)C[C@@H]1CN(S(C)(=O)=O)C[C@H]1NC(=O)c1cccs1 | 569 |
| Cn1cc(-c2ccncc2)cc1C(=O)NCc1ccc(F)cc1F | 648 |
| CCCC(=O)Nc1nc(-c2ccc3c(c2)N(CC)C(=O)CO3)cs1 | 853 |
| CCOC(=O)N1CCN(C(=O)C2CCC(CNS(=O)(=O)CC)CC2)CC1 (configuration not stated) | 631 |
| Cc1nc([C@@H]2CN(C(=O)c3cccn3C)C[C@H]2C(N)=O)n[nH]1 | 576 |
